Test results published in ChEMBL document CHEMBL2331514, “Structure-based design and synthesis of novel pseudosaccharine derivatives as antiproliferative agents and kinase inhibitors” (Eur J Med Chem, 2013).

Assays:
Assay type in all cases: functional
MOLT-4 = test: Cytotoxicity against human MOLT4 cells assessed as growth inhibition at 10 uM after 48 hrs by SRB assay; conditions: MOLT-4, 48 h, read-out: GI
[1] = Cytotoxicity against human NCI-ADR-RES cells assessed as growth inhibition at 10 uM after 48 hrs by SRB assay; conditions: read-out: GI
UO-31 = test: Cytotoxicity against human UO31 cells assessed as growth inhibition at 10 uM after 48 hrs by SRB assay; conditions: UO-31, 48 h, read-out: GI
SK-OV-3 = test: Cytotoxicity against human SKOV3 cells assessed as growth inhibition at 10 uM after 48 hrs by SRB assay; conditions: SK-OV-3, 48 h, read-out: GI
A549 = test: Cytotoxicity against human A549/ATCC cells assessed as growth inhibition at 10 uM after 48 hrs by SRB assay; conditions: A549, 48 h, read-out: GI
TK-10 = test: Cytotoxicity against human TK10 cells assessed as growth inhibition at 10 uM after 48 hrs by SRB assay; conditions: TK-10, 48 h, read-out: GI
SK-MEL-2 = test: Cytotoxicity against human SK-MEL-2 cells assessed as growth inhibition at 10 uM after 48 hrs by SRB assay; conditions: SK-MEL-2, 48 h, read-out: GI
NCI-H460 = test: Cytotoxicity against human NCI-H460 cells assessed as growth inhibition at 10 uM after 48 hrs by SRB assay; conditions: NCI-H460, 48 h, read-out: GI
HCT-15 = test: Cytotoxicity against human HCT15 cells assessed as growth inhibition at 10 uM after 48 hrs by SRB assay; conditions: HCT-15, 48 h, read-out: GI
UACC-62 = test: Cytotoxicity against human UACC62 cells assessed as growth inhibition at 10 uM after 48 hrs by SRB assay; conditions: UACC-62, 48 h, read-out: GI
T47D = test: Cytotoxicity against human T47D cells assessed as growth inhibition at 10 uM after 48 hrs by SRB assay; conditions: read-out: GI
HOP-62 = test: Cytotoxicity against human HOP62 cells assessed as growth inhibition at 10 uM after 48 hrs by SRB assay; conditions: HOP-62, 48 h, read-out: GI
SK-MEL-5 = test: Cytotoxicity against human SK-MEL-5 cells assessed as growth inhibition at 10 uM after 48 hrs by SRB assay; conditions: SK-MEL-5, 48 h, read-out: GI
NCI-H322M = test: Cytotoxicity against human NCI-H322M cells assessed as growth inhibition at 10 uM after 48 hrs by SRB assay; conditions: read-out: GI
RPMI-8226 = test: Cytotoxicity against human RPMI8226 cells assessed as growth inhibition at 10 uM after 48 hrs by SRB assay; conditions: RPMI-8226, 48 h, read-out: GI
SNB-75 = test: Cytotoxicity against human SNB75 cells assessed as growth inhibition at 10 uM after 48 hrs by SRB assay; conditions: SNB-75, 48 h, read-out: GI
A498 = test: Cytotoxicity against human A498 cells assessed as growth inhibition at 10 uM after 48 hrs by SRB assay; conditions: A498, 48 h, read-out: GI
U-251 = test: Cytotoxicity against human U251 cells assessed as growth inhibition at 10 uM after 48 hrs by SRB assay; conditions: U-251, 48 h, read-out: GI
SK-MEL-28 = test: Cytotoxicity against human SK-MEL-28 cells assessed as growth inhibition at 10 uM after 48 hrs by SRB assay; conditions: SK-MEL-28, 48 h, read-out: GI
SF-539 = test: Cytotoxicity against human SF539 cells assessed as growth inhibition at 10 uM after 48 hrs by SRB assay; conditions: SF-539, 48 h, read-out: GI
HCC 2998 = test: Cytotoxicity against human HCC2998 cells assessed as growth inhibition at 10 uM after 48 hrs by SRB assay; conditions: HCC 2998, 48 h, read-out: GI
CAKI-1 = test: Cytotoxicity against human Caki1 cells assessed as growth inhibition at 10 uM after 48 hrs by SRB assay; conditions: CAKI-1, 48 h, read-out: GI
NCI-H23 = test: Cytotoxicity against human NCI-H23 cells assessed as growth inhibition at 10 uM after 48 hrs by SRB assay; conditions: NCI-H23, 48 h, read-out: GI
OVCAR-8 = test: Cytotoxicity against human OVCAR8 cells assessed as growth inhibition at 10 uM after 48 hrs by SRB assay; conditions: OVCAR-8, 48 h, read-out: GI
SR = test: Cytotoxicity against human SR cells assessed as growth inhibition at 10 uM after 48 hrs by SRB assay; conditions: read-out: GI
SF-268 = test: Cytotoxicity against human SF268 cells assessed as growth inhibition at 10 uM after 48 hrs by SRB assay; conditions: SF-268, 48 h, read-out: GI
Malme-3M = test: Cytotoxicity against human MALME-3M cells assessed as growth inhibition at 10 uM after 48 hrs by SRB assay; conditions: read-out: GI
Hs-578T = test: Cytotoxicity against human Hs578T cells assessed as growth inhibition at 10 uM after 48 hrs by SRB assay; conditions: read-out: GI
MDA-MB-435 = test: Cytotoxicity against human MDA-MB-435 cells assessed as growth inhibition at 10 uM after 48 hrs by SRB assay; conditions: MDA-MB-435, 48 h, read-out: GI
NCI-H226 = test: Cytotoxicity against human NCI-H226 cells assessed as growth inhibition at 10 uM after 48 hrs by SRB assay; conditions: NCI-H226, 48 h, read-out: GI
HT-29 = test: Cytotoxicity against human HT-29 cells assessed as growth inhibition at 10 uM after 48 hrs by SRB assay; conditions: HT-29, 48 h, read-out: GI
SW-620 = test: Cytotoxicity against human SW620 cells assessed as growth inhibition at 10 uM after 48 hrs by SRB assay; conditions: SW-620, 48 h, read-out: GI
OVCAR-5 = test: Cytotoxicity against human OVCAR5 cells assessed as growth inhibition at 10 uM after 48 hrs by SRB assay; conditions: OVCAR-5, 48 h, read-out: GI
KM12 = test: Cytotoxicity against human KM12 cells assessed as growth inhibition at 10 uM after 48 hrs by SRB assay; conditions: KM12, 48 h, read-out: GI
786-0 = test: Cytotoxicity against human 786-0 cells assessed as growth inhibition at 10 uM after 48 hrs by SRB assay; conditions: 786-0, 48 h, read-out: GI
MDA-MB-468 = test: Cytotoxicity against human MDA-MB-468 cells assessed as growth inhibition at 10 uM after 48 hrs by SRB assay; conditions: MDA-MB-468, 48 h, read-out: GI
OVCAR-3 = test: Cytotoxicity against human OVCAR3 cells assessed as growth inhibition at 10 uM after 48 hrs by SRB assay; conditions: OVCAR-3, 48 h, read-out: GI

| Compound | inhibition of growth at 10 µM (MOLT-4) | inhibition of growth at 10 µM [1] | inhibition of growth at 10 µM (UO-31) | inhibition of growth at 10 µM (SK-OV-3) | inhibition of growth at 10 µM (A549) | inhibition of growth at 10 µM (TK-10) | inhibition of growth at 10 µM (SK-MEL-2) | inhibition of growth at 10 µM (NCI-H460) | inhibition of growth at 10 µM (HCT-15) | inhibition of growth at 10 µM (UACC-62) | inhibition of growth at 10 µM (T47D) | inhibition of growth at 10 µM (HOP-62) | inhibition of growth at 10 µM (SK-MEL-5) | inhibition of growth at 10 µM (NCI-H322M) | inhibition of growth at 10 µM (RPMI-8226) | inhibition of growth at 10 µM (SNB-75) | inhibition of growth at 10 µM (A498) | inhibition of growth at 10 µM (U-251) | inhibition of growth at 10 µM (SK-MEL-28) | inhibition of growth at 10 µM (SF-539) | further results |
| --- | --- | --- | --- | --- | --- | --- | --- | --- | --- | --- | --- | --- | --- | --- | --- | --- | --- | --- | --- | --- | --- |
| COc1ccc(NC(=O)Nc2ccc(NC3=NS(=O)(=O)c4ccccc43)cc2)cc1 | 11% | -6% | 1% | -20% | -10% | -4% | -4% | 1% | 3% | -3% | 5% | -12% | 14% | 0% | 4% | 1% | 17% | 14% | -4% | 14% | inhibition of growth at 10 µM (HCC 2998): -3%; inhibition of growth at 10 µM (CAKI-1): -1%; inhibition of growth at 10 µM (NCI-H23): 8%; inhibition of growth at 10 µM (OVCAR-8): -11%; inhibition of growth at 10 µM (SR): 11%; inhibition of growth at 10 µM (SF-268): -1%; inhibition of growth at 10 µM (Malme-3M): 6%; inhibition of growth at 10 µM (Hs-578T): -4%; inhibition of growth at 10 µM (MDA-MB-435): 6%; inhibition of growth at 10 µM (NCI-H226): -3%; inhibition of growth at 10 µM (HT-29): 17%; inhibition of growth at 10 µM (SW-620): -6%; inhibition of growth at 10 µM (OVCAR-5): -10%; inhibition of growth at 10 µM (KM12): -1%; inhibition of growth at 10 µM (786-0): 19%; inhibition of growth at 10 µM (MDA-MB-468): -7%; inhibition of growth at 10 µM (OVCAR-3): -2% |
| O=C(Nc1ccc(NC2=NS(=O)(=O)c3ccccc32)cc1)Nc1cccc(Br)c1 | 37% | 8% | 13% | 4% | 4% | -2% | 1% | 1% | -6% | 19% | 60% | 24% | 45% | 29% | 8% | 15% | 21% | 39% | 5% | 36% | inhibition of growth at 10 µM (HCC 2998): 5%; inhibition of growth at 10 µM (CAKI-1): 5%; inhibition of growth at 10 µM (NCI-H23): 14%; inhibition of growth at 10 µM (OVCAR-8): 17%; inhibition of growth at 10 µM (SR): 27%; inhibition of growth at 10 µM (SF-268): 23%; inhibition of growth at 10 µM (Malme-3M): 17%; inhibition of growth at 10 µM (Hs-578T): 35%; inhibition of growth at 10 µM (MDA-MB-435): 11%; inhibition of growth at 10 µM (NCI-H226): 20%; inhibition of growth at 10 µM (HT-29): 11%; inhibition of growth at 10 µM (SW-620): -2%; inhibition of growth at 10 µM (OVCAR-5): 13%; inhibition of growth at 10 µM (KM12): 88%; inhibition of growth at 10 µM (786-0): 27%; inhibition of growth at 10 µM (MDA-MB-468): 60%; inhibition of growth at 10 µM (OVCAR-3): 22% |
| O=C(Nc1ccccc1)Nc1ccc(OC2=NS(=O)(=O)c3ccccc32)cc1 | 32% | 21% | 13% | -13% | 22% | -7% | -2% | 21% | 48% | 21% | 23% | -11% | 17% | 5% | 36% | 22% | 17% | 21% | -2% | 21% | inhibition of growth at 10 µM (HCC 2998): 20%; inhibition of growth at 10 µM (CAKI-1): 25%; inhibition of growth at 10 µM (NCI-H23): 6%; inhibition of growth at 10 µM (OVCAR-8): 5%; inhibition of growth at 10 µM (SR): 36%; inhibition of growth at 10 µM (SF-268): 6%; inhibition of growth at 10 µM (Malme-3M): 21%; inhibition of growth at 10 µM (Hs-578T): 13%; inhibition of growth at 10 µM (MDA-MB-435): 15%; inhibition of growth at 10 µM (NCI-H226): 20%; inhibition of growth at 10 µM (HT-29): 52%; inhibition of growth at 10 µM (SW-620): 2%; inhibition of growth at 10 µM (OVCAR-5): 13%; inhibition of growth at 10 µM (KM12): 58%; inhibition of growth at 10 µM (786-0): 26%; inhibition of growth at 10 µM (MDA-MB-468): 20%; inhibition of growth at 10 µM (OVCAR-3): -9% |
| Cc1ccc(NC2=NS(=O)(=O)c3ccc(NC(=O)CCC(=O)O)cc32)cc1 | -3% | -3% | 12% | -11% | -7% | -16% | -6% | -7% | -13% | 6% | 5% | -5% | 5% | 2% | 7% | 21% | -14% | 0% | -2% | 1% | inhibition of growth at 10 µM (HCC 2998): -4%; inhibition of growth at 10 µM (CAKI-1): 1%; inhibition of growth at 10 µM (NCI-H23): 1%; inhibition of growth at 10 µM (OVCAR-8): -10%; inhibition of growth at 10 µM (SR): -5%; inhibition of growth at 10 µM (SF-268): -10%; inhibition of growth at 10 µM (Malme-3M): -1%; inhibition of growth at 10 µM (Hs-578T): -2%; inhibition of growth at 10 µM (MDA-MB-435): 0%; inhibition of growth at 10 µM (NCI-H226): 13%; inhibition of growth at 10 µM (HT-29): -3%; inhibition of growth at 10 µM (SW-620): 1%; inhibition of growth at 10 µM (OVCAR-5): 1%; inhibition of growth at 10 µM (KM12): -13%; inhibition of growth at 10 µM (786-0): 2%; inhibition of growth at 10 µM (MDA-MB-468): -6%; inhibition of growth at 10 µM (OVCAR-3): -16% |
